In PubChem BioAssay AID743368:

Target: Acetylcholine receptor subunit alpha (Mus musculus) (UniProt P04756)
Assay: muscle nAChR inhibitors, cell-based, Mus musculus, Xenopus oocytes (AID 743368)
Details: two-electrode voltage clamp, ACh-evoked current

Chain of Acetylcholine receptor subunit alpha (Mus musculus) (P04756 whole entry, looked up): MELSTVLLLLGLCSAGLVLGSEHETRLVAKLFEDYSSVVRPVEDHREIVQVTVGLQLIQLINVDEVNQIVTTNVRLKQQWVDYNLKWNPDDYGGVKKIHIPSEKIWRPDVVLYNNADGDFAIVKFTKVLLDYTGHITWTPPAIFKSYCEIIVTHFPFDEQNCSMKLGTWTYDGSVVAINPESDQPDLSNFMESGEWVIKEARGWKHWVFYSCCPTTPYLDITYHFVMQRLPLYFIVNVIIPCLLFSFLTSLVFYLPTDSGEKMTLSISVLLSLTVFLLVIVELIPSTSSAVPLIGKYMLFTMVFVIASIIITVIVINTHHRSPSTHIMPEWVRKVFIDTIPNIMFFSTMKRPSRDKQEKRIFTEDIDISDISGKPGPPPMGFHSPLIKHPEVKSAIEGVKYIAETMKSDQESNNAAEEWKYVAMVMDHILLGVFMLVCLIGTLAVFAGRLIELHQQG

Row | SMILES | IC50 [µM]
1 | COn1c(Br)c2c3c(cccc31)[C@H]1C[C@@H](C)CN(C)[C@@H]1C2 | 3.7
2 | CC/C=C/[C@@H]1CC[C@]2(C[C@H]3CC[C@H]4[C@@H](C(=O)OC(CC)CCCCCCCCCCCCC[C@@H]5O[C@](O)(CCN)[C@H](O)N(CCCN)C5=O)[C@@]5(CCC[C@H](C)O5)NC(=[N+]34)N2)O1 (stereo partly drawn) | 4.1
3 | COc1cc(CCN)c2c(c1OC)SSSSS2 | 8.7
